From patent US7972390B2, “Methods for controlling crystal growth, crystallization, structures and phases in materials and systems” (GR Intellectual Reserve, LLC, priority 2003, dated 2011)

Columns and labels:
[1] = Example 8d: phenyl salicylate solubility in neon-lamp conditioned vs unconditioned acetone at room temperature; format: physicochemical; settings: equilibrated about 20 hours
Description: Acetone (about 1 ml) was pipetted into small glass test tubes and stoppers placed in the tube. […] Tubes were conditioned under a neon lamp; (about 8 mW/cm^2) in an otherwise dark room for about 1.5 hours at about 28° C. ambient temperature. Tubes were also placed simultaneously in an incubator at about 28° C. for about 1.5 hours.
Phenyl salicylate (about 3.50 grams) was added to each tube leaving a layer undissolved on the bottom of each tube. The solutions were allowed to equilibrate overnight (about 20 hours). Solution was filtered over the crystals and 0.500 ml pipetted into fresh tubes.
After the acetone evaporated, dry weights of phenyl salicylate per ml dissolved in conditioned and unconditioned acetone were determined.

[2] = Example 8c: sugar solubility in sodium-lamp conditioned vs control water at room temperature; format: physicochemical; settings: for Percent sugar by weight: 23.5° C.
Description: Source, Greeneville Municipal Water supply, Greeneville, Tenn. […] Length 12″.
One beaker “KK” was placed under a sodium lamp 112 for about three hours, as configured in FIG. 97f, while the other Beaker “IL” functioning as the control was placed in an incubator for about three hours at an internal temperature of about 28° C.
Sugar (about 300 grams) was then added to each beaker and stirred.

Structure (SMILES) | Average amount of phenyl salicylate dissolved ([1]; acetone conditioned under neon lamp about 1.5 hours) [g/mL] | Average amount of phenyl salicylate dissolved ([1]; unconditioned acetone (incubator about 1.5 hours)) [g/mL] | Percent sugar by weight ([2]; Beaker KK: water under Na lamp three hours) [%] | Percent sugar by weight ([2]; Beaker LL: control water 3 hours in incubator) [%] | More sucrose by weight dissolved by conditioned water than by unconditioned control water ([2]; after three hours exposure of the water to the sodium lamp)
O=C(Oc1ccccc1)c1ccccc1O [phenyl salicylate, Phenyl salicylate] | 0.78 | 0.68 | – | – | –
OC[C@H]1O[C@@](CO)(O[C@H]2O[C@H](CO)[C@@H](O)[C@H](O)[C@H]2O)[C@@H](O)[C@@H]1O [sucrose, Sucrose] | – | – | 39.1 | 36.7 | about 2.4%
